Measurements as given in ChEMBL document CHEMBL5291721, “A preclinical secondary pharmacology resource illuminates target-adverse drug reaction associations of marketed drugs” (Nat Commun, 2023).

Tests used:
[1] = molecular target: Beta-2 adrenergic receptor (Homo sapiens, UniProt P07550)
[2] = molecular target: T1, Alpha-1A adrenergic receptor (Homo sapiens, UniProt P35348); format: functional, cell-based
T1 sequence (P35348 whole entry): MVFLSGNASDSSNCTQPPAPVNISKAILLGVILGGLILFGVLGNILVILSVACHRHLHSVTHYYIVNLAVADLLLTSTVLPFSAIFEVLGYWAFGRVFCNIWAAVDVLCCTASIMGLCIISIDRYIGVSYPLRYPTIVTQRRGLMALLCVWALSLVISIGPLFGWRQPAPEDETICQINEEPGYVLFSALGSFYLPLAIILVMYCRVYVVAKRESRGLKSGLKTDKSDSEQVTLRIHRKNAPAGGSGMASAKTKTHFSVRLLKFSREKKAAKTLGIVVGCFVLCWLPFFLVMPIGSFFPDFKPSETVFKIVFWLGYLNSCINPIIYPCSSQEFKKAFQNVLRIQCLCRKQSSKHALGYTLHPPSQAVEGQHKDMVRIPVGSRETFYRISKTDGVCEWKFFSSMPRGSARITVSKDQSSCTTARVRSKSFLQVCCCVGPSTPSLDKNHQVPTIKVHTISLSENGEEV

[3] = molecular target: T2, Progesterone receptor (Homo sapiens, UniProt P06401); format: functional
T2 sequence (P06401 whole entry): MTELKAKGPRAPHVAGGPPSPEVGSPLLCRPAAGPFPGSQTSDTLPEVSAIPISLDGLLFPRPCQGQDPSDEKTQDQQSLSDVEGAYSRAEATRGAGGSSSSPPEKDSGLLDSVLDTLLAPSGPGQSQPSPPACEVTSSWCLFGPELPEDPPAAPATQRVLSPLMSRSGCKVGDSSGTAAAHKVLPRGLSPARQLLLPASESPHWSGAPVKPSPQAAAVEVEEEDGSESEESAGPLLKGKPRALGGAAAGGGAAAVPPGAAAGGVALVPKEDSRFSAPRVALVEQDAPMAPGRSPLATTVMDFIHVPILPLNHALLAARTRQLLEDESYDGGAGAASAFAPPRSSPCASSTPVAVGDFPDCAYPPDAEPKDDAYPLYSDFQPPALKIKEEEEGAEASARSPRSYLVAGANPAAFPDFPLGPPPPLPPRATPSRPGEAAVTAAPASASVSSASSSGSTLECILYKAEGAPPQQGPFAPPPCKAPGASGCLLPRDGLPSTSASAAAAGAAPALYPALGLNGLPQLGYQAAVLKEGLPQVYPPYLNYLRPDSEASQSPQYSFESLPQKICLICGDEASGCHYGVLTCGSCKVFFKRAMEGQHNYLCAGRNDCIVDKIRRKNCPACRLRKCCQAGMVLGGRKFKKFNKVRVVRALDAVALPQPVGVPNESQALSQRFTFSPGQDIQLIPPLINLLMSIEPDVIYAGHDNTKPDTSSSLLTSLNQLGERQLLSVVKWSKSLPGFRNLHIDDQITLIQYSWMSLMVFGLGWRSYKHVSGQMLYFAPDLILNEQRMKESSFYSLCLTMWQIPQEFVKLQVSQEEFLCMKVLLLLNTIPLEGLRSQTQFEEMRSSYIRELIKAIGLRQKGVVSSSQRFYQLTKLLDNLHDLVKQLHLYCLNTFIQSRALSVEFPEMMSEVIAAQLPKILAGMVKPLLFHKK

[4] = molecular target: T3, Glucocorticoid receptor (Homo sapiens, UniProt P04150)
T3 sequence (P04150 whole entry): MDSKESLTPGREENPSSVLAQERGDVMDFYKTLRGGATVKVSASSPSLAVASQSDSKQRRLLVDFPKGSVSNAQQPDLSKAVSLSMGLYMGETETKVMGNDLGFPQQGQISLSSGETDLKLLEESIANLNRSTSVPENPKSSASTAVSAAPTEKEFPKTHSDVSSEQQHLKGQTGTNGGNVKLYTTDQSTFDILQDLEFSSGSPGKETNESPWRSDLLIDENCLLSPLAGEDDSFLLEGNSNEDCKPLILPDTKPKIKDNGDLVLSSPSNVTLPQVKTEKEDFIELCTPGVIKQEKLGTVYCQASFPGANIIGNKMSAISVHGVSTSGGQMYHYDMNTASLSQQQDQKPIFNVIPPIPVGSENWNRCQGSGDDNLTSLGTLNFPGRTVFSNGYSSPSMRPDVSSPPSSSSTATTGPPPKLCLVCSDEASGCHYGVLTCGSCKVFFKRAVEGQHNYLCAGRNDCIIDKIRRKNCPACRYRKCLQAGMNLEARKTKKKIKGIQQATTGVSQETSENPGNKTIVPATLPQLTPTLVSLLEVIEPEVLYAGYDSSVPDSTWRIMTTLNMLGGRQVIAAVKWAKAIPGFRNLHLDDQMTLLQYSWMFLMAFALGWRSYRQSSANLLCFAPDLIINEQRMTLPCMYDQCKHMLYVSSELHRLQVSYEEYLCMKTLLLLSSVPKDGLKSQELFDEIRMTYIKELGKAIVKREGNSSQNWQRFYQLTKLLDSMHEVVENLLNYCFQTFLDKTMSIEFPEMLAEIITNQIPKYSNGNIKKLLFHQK

[5] = molecular target: 5-hydroxytryptamine receptor 2B (Homo sapiens, UniProt P41595); format: functional, cell-based
[6] = molecular target: Vasopressin V1a receptor (Homo sapiens, UniProt P37288)
[7] = molecular target: Growth hormone secretagogue receptor type 1 (Homo sapiens, UniProt Q92847)
[8] = molecular target: Muscarinic acetylcholine receptor M3 (Homo sapiens, UniProt P20309)
Also: assay procedure not described here.

Sequence of Growth hormone secretagogue receptor type 1 (Q92847 whole entry): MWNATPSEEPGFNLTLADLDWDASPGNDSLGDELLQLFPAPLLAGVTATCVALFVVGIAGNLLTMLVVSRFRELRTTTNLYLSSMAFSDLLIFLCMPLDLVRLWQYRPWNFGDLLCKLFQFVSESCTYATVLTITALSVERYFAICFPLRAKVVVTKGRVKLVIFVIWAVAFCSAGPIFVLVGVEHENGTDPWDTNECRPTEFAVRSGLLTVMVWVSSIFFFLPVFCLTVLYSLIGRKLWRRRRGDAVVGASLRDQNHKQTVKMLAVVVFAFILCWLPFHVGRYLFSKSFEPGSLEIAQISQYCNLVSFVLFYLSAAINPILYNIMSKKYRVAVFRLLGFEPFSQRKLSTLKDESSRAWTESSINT
Sequence of Muscarinic acetylcholine receptor M3 (P20309 whole entry): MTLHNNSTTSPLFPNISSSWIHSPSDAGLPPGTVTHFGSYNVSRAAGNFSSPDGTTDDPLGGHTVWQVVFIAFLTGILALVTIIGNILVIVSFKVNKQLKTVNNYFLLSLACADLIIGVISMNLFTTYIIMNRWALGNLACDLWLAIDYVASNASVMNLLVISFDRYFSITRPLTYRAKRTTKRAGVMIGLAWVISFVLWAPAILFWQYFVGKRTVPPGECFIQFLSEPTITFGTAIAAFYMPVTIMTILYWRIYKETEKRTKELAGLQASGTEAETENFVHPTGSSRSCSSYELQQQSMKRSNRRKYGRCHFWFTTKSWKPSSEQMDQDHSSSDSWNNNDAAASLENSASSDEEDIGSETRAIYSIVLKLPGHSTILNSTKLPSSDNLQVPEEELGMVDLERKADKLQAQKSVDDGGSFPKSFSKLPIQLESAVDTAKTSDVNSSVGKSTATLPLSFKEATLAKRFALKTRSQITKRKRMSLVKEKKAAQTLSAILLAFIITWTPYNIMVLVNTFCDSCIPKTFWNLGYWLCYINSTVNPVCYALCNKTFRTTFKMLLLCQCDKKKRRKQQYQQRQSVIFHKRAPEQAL
Sequence of 5-hydroxytryptamine receptor 2B (P41595 whole entry): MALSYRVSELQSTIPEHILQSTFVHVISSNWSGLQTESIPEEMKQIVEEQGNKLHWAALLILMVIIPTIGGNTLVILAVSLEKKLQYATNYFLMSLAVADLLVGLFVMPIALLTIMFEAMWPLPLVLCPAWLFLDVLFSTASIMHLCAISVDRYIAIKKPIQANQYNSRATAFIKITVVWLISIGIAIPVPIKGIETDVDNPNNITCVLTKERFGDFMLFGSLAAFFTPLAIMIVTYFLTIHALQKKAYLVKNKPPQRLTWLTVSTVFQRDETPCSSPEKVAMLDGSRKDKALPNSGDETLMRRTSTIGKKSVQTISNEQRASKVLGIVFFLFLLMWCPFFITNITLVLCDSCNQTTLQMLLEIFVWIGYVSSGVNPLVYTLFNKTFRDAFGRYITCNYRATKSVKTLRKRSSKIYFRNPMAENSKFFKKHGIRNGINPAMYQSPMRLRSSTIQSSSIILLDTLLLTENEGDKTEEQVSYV
Sequence of Beta-2 adrenergic receptor (P07550 whole entry): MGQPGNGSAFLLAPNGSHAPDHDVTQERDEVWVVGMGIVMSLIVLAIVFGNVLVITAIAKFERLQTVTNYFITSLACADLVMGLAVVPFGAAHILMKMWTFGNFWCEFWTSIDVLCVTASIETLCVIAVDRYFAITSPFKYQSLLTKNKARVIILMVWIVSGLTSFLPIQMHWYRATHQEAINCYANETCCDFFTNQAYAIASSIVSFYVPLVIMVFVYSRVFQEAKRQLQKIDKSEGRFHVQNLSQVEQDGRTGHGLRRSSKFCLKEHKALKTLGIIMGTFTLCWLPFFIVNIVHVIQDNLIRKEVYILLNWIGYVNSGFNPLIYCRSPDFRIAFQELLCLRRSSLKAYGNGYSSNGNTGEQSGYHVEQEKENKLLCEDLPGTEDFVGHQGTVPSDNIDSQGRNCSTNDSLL
Sequence of Vasopressin V1a receptor (P37288 whole entry): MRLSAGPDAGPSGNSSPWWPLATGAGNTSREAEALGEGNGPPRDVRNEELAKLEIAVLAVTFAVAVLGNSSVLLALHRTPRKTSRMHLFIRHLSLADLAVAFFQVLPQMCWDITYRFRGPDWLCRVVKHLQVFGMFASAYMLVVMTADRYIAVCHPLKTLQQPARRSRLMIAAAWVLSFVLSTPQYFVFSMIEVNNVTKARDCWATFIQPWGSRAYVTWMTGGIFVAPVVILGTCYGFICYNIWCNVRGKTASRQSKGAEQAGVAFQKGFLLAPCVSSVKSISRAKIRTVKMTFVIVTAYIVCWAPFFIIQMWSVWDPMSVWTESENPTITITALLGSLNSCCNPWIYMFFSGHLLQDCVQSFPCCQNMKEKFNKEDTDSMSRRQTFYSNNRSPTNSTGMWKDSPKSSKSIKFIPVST

Row | Compound | AC50 [1] | AC50 [2] | AC50 [3] | AC50 [4] | AC50 [5] | AC50 [6] | AC50 [7] | AC50 [8]
1 | CC(C)OC(=O)C(C(=O)OC(C)C)=C1SC=CS1 [MALOTILATE] | > 30 µM | > 30 µM | > 30 µM | > 30 µM | > 30 µM | > 30 µM | > 30 µM | > 30 µM
2 | O=C1Nc2ccc(Cl)cc2C(c2ccccc2)=NC1O (stereo unspecified) [OXAZEPAM] | > 10 µM | > 30 µM |  |  | > 10 µM | > 10 µM | > 30 µM | > 10 µM
3 | CC[N+]1(C)CCCC(OC(=O)C(O)(c2ccccc2)c2ccccc2)C1 (stereo unspecified) [PIPENZOLATE] | > 30 µM |  | > 30 µM | > 30 µM | > 30 µM | > 30 µM | > 30 µM | 0.019 µM
4 | C[n+]1ccccc1/C=N/O [PRALIDOXIME] |  | > 30 µM |  |  | > 30 µM |  |  | 
5 | CCN(CC)CC(=O)Oc1ccc(NC(C)=O)cc1 [PROPACETAMOL] | > 30 µM | > 30 µM | > 30 µM | > 30 µM | > 30 µM | > 30 µM | > 30 µM | > 30 µM
6 | CN1CCN(c2c(F)cc3c(=O)c(C(=O)O)cn4c3c2SCC4)CC1 [RUFLOXACIN] |  | > 30 µM | > 30 µM | > 30 µM | > 30 µM | > 30 µM | > 30 µM | > 30 µM
7 | CC(C)CC(N(C)C)C1(c2ccc(Cl)cc2)CCC1 (stereo unspecified) [SIBUTRAMINE] | > 10 µM | > 30 µM |  | > 30 µM |  | > 10 µM | > 30 µM | 
8 | COc1c(O[C@@H]2O[C@H](CO)[C@@H](O)[C@H](O)[C@H]2O)cc2c(c1OC)-c1ccc(SC)c(=O)cc1[C@@H](NC(C)=O)CC2 [THIOCOLCHICOSIDE] |  | > 30 µM | > 30 µM |  | > 30 µM | > 30 µM | > 30 µM | > 30 µM
9 | CC(C)(C)NC[C@H](O)COc1nsnc1N1CCOCC1 [TIMOLOL] |  | > 30 µM | > 30 µM | > 30 µM | > 30 µM |  | > 30 µM | 
10 | COc1cc2nccc(Oc3ccc(NC(=O)Nc4cc(C)on4)c(Cl)c3)c2cc1OC [TIVOZANIB] | > 3 µM | > 30 µM | > 3 µM |  |  |  |  | 
11 | CN1[C@@H]2CC[C@H]1C[C@@H](OC(=O)c1c[nH]c3ccccc13)C2 [TROPISETRON] |  | > 30 µM |  |  | > 30 µM |  | > 30 µM | 
12 | COc1ccc(C(CN(C)C)C2(O)CCCCC2)cc1 (stereo unspecified) [VENLAFAXINE] | > 10 µM | > 30 µM |  |  |  |  | > 30 µM | 
13 | COLISTIN |  | > 30 µM |  |  | > 30 µM |  |  | > 30 µM
